melting point: 203 to 204 °C (dec.)
Compound: Oc1ccc(OC(F)(F)F)cc1C1COC2(CCCNC2c2ccccc2)C1 (racemic) [rac-3, rac-2-(6-phenyl-1-oxa-7-azaspiro[4.5]decan-3-yl)-4-(trifluoromethoxy)phenol]
